Laboratory results: the OPERA property sets (Mansouri et al. 2018)

Row | Compound | logP
1 | COc1c(O)ccc(O)c1OC | 0.61
2 | CCNC(=O)CCn1ccc(=O)c(O)c1C | -0.82
3 | c1cc(CN2CCCCC2)cc(OCCCNc2nc3ccccc3s2)c1 | 5.41
4 | O=c1[nH]c(=S)ccn1[C@H]1CC[C@@H](CO)O1 | -0.21
5 | CCCc1ccc(OCC(OC(=S)n2ccnc2)C(C)(C)C)cc1 (centres undefined) | 5.77
6 | Cc1ccc(OCC(OC(=S)n2ccnc2)C(C)(C)C)cc1 (centres undefined) | 4.66
7 | Cc1cccc(Nc2c([N+](=O)[O-])c(C)nn2-c2ccccc2)c1 | 3.25
8 | COC(=O)NC1=NCC(c2cccc(Cl)c2)N1C (centres undefined) | 2.1
9 | CC(=O)N1c2ccc(C)cc2C2CN(C)CCC21 (centres undefined) | 1.25
10 | Cc1[nH]cnc1CSCCNc1[nH]ccc1[N+](=O)[O-] | 1.04
11 | Cn1c([N+](=O)[O-])cnc1C1CC1 | 1
12 | Oc1cc(Cl)c(Cl)c(Cl)c1O | 3.71
13 | COCC(=O)Cn1ccnc1[N+](=O)[O-] | -0.26
14 | COC(=O)c1c(C)[nH]c(-c2ccc(Cl)cn2)c1C(=O)OC | 2.7
15 | CCOc1ccc(C=NNC(=N)N)cc1 | 0.24
16 | CC(C)NC(=N)NC(=N)Nc1ccc(Cl)cc1 | 2.53
17 | COCC(C)n1ccc(=O)c(O)c1C (centres undefined) | -0.26
18 | CC1(C)S[C@@H]2[C@H](NC(=O)[C@H](N)c3ccc(O)cc3)C(=O)N2[C@H]1C(=O)O | 0.87
19 | Cn1c(S)nnc(-c2ccc(OC(F)(F)F)c(Cl)c2)c1=O | 3.61
20 | O=C1CC2(CCCC2)C(=O)N1Oc1ccccc1 | 1.77
21 | Nc1ccc(C(=O)O)c(N)c1 | -0.31
22 | CCN(C)C(=O)c1cccc(Oc2ccccc2)c1 | 2.98
23 | Nc1ccc(Cl)c(Cl)c1Cl | 3.33
24 | CCC(CC)(C(=O)NC(N)=S)C(=O)OC | 1.82
25 | CCCCCCCS[C@@H]1O[C@H](CO)[C@H](O)[C@H](O)[C@H]1O | 1.5
26 | NS(=O)(=O)c1cc2c(cc1F)N=CNS2(=O)=O | -0.29
27 | Nc1ccc(Cl)cc1Cl | 2.78

Row | Compound | logP
28 | CNC(=O)NC(=O)C(C)(C(=O)OCOC)C1=CCCCC1 (centres undefined) | 1.8
29 | N#Cc1cccnc1 | 0.36
30 | CCOP(=S)(OCC)Oc1nc(Cl)c(Cl)cc1Cl | 4.96
31 | CC(Cl)CCl (centres undefined) | 1.98
32 | CCC(O)C(CC(C)N(C)C)(c1ccccc1)c1ccccc1 (centres undefined) | 4.27
33 | Cc1cccc2nc3n(c(=O)c12)CCC3 | 1.59
34 | Cc1ccc(C)c(Oc2cccc(C(=O)NC(C)C)c2)c1 | 4.35
35 | COC(=O)c1ccccc1S(=O)(=O)NC(=O)Nc1nc(C)nc(OC)n1 | 2.2
36 | N#Cc1ccccc1OCC(O)CNCCNC(=O)Cc1ccc(O)cc1 (centres undefined) | 0.92
37 | O=C1c2ccccc2C(=O)C1c1cccc(Cl)c1 | 3.61
38 | CNC(=S)NCCCCC(NC(=O)C(CC(=O)N1CCOCC1)Cc1cccc2ccccc12)C(=O)NC(CC1CCCCC1)C(O)CC(=O)NCCN1CCOCC1 (centres undefined) | 1.68
39 | COc1c(Cl)cc(Cl)c(O)c1C(=O)NCC1CCCN1CCF (centres undefined) | 3.66
40 | O=C(Nc1ncnc2c1ncn2[C@@H]1O[C@H](CO)C[C@@H]1F)c1ccccc1 | 0.73
41 | CNC(=O)N1C(=O)CN=C(c2ccccc2)c2cc([N+](=O)[O-])ccc21 | 1.76
42 | CCOP(=O)(OCC)OC(=CCl)c1ccc(Cl)cc1Cl | 3.81
43 | O=C1CN=C(c2ccccc2F)c2cc(Cl)ccc2N1CC(F)(F)F | 3.36
44 | CCc1c(C)nc2n(c1=O)C(C)CCC2 (centres undefined) | 1.43
45 | Cc1ccc(Cl)c(NS(=O)(=O)c2nc(C)n(-c3ccccc3)n2)c1Cl | 4.4
46 | CCCCN1Cn2c(nc3ccccc3c2=O)C1C (centres undefined) | 1.6
47 | CCn1cc(C(=O)O)c(=O)c2cc3c(cc21)OCO3 | 0.94
48 | NC(=S)c1ccc(Cl)cc1 | 2.4
49 | OC[C@H]1NC[C@H](O)[C@@H](O)[C@@H]1O | -1.8
50 | OC(Cn1ccnc1)(c1cccc(Br)c1)c1ccc(F)cc1F (centres undefined) | 3.6
51 | Cc1c(O)c(=O)ccn1C | -0.77
52 | Oc1c(Cl)cc(Cl)c(Cl)c1O | 3.6
53 | CCCC(=O)OCn1cc2c(=O)[nH]cnc2n1 | 0.33
54 | CCCC(=NOCC)C1C(=O)CC(C)(C2CC2)OC1=O (centres undefined) | 3.28
